Here are results for nine compounds from paper PMC8273037 (The Journal of Antibiotics, 2021).

One data set concerns S. aureus and MRSA. The note with it: cited from earlier work.
Data set [1] has as its system Human papillomavirus 11, strain HE611260.1. Description: HPV-11 NanoLuc reporter replication assay. Type of data set: cell-based.
Data set [2] in a line: Cytotoxicity in C-33 A cells. Type of data set: cell-based. The note with it: human.
Data set [3] has as its system Herpes simplex virus 1, strain E-377. Description: HSV-1 cytopathic effect reduction assay. Type of data set: cell-based. (Cytopathic effects are the visible damage that an infection or toxin causes in cultured cells.)
For data set [4], the system named is Human cytomegalovirus, strain GDGr K17 (resistant isolate). Description: HCMV resistant isolate cytopathic effect reduction assay. Type of data set: cell-based. The settings on record: for EC50 / EC90: Human betaherpesvirus 5, HFF; for EC50: read-out: EC50 (reduced viral replication by 50%); for EC90: read-out: EC90 (reduced viral replication by 90%).
The subject of the next data set is E. coli. The settings on record: cited from earlier work.
A further data set has as its system P. aeruginosa. The note with it: cited from earlier work.
Another data set relates to HIV-1. The note with it: read-out: EC50, inhibition of infectivity of HIV-1 in vitro; cited from earlier work.
For data set [5], the system named is Klebsiella pneumoniae ATCC 700603 (MDR). Description: Antibacterial growth inhibition / MIC. It is filed as cell-based. The note with it: hit confirmation.
Data set [6] deals with Acinetobacter baumannii ATCC 19606. Description: Antibacterial growth inhibition / MIC. The settings on record: hit confirmation.

≈ marks a conversion by molar mass, not a printed value. Where “and” joins values, the source holds several entries; their conditions need not be identical. Equal values may be shown once. Read-outs that look alike come from different tables or passages of the source.

Usually MIC stands for the lowest concentration that inhibits growth of the organism. With “3-amino-3,4-seco-28-amino-lup-4(23),20(29)-dien”, the minimal inhibitory concentration (MIC) with S. aureus and MRSA (MRSA, bacteriostatic effect) is at most 0.25 µg/mL.
A word on the EC50: it is the concentration at which the effect is half-maximal. One may read the EC90 as the concentration at which the effect reaches the 90% level. The CC50 is the concentration giving 50% cytotoxicity. `Nc1nc2c(ncn2CCOCP(=O)(O)O)c(=O)[nH]1` [9-[2-(Phosphonomethoxy)ethyl]guanine]: in [1] (HPV-11, C-33 A cells), the “SI50 selectivity index (CC50/EC50)” value is on record as over 221. In data set [1] (human papillomavirus 11, C-33-A, read-out: EC50 (reduced viral replication by 50%)), the concentration for a half-maximal effect (EC50) stood at 680 nM. Also, in data set [1] (human papillomavirus 11, C-33-A, read-out: EC90 (reduced viral replication by 90%)), the EC90 was 101000 nM. The compound further registered a cytotoxic concentration (CC50) in data set [2] of over 150000 nM.
For `Nc1nc2c(ncn2COCCO)c(=O)[nH]1` [Acyclovir], the “SI50 selectivity index (CC50/EC50)” value in [3] (HSV-1 E-377, HFF cells) is >172 and >181. Besides, the EC90 in data set [3] (Human alphaherpesvirus 1, HFF, read-out: EC90 (reduced viral replication by 90%)) was over 150000 nM. For the same compound, the EC50 in data set [3] (read-out: EC50 (reduced viral replication by 50%), HSV-1 E-377, HFF cells) came to 830 nM.
As for `Nc1ccn(C[C@@H](CO)OCP(=O)(O)O)c(=O)n1` [Cidofovir], the “SI50 selectivity index (CC50/EC50)” value in data set [4] (HCMV GDGr K17 (resistant isolate), HFF cells) worked out at 120. Besides, in data set [4], the EC50 was found to be 920 nM and the EC90 was over 30000 nM.
For `Nc1nc(O)c2ncn(COC(CO)CO)c2n1` [Ganciclovir], in [4], the EC50 was over 150000 nM and the EC90 is over 150000 nM.
In the case of `CC1(C)CCC2(C(=O)NCCNCCN)CCC3(C)C(=CCC4C5(C)CCC(=O)C(C)(C)C5CCC43C)C2C1` (stereo not shown) [Oleanonic acid amide with diethylentriamine], the results for the MIC with E. coli and in the data set on P. aeruginosa were 25 µM (≈ 13.5 µg/mL) and 50 µM (≈ 27 µg/mL), respectively.
As for `C=C(C)[C@@H]1CC[C@]2(C(=O)O)CC[C@]3(C)[C@H](CC[C@@H]4[C@@]5(C)CC[C@H](O)C(C)(C)[C@@H]5CC[C@]43C)[C@@H]12` [betulinic acid], the EC50 in the data set with HIV-1 is 1400 nM.
For the compound `C[C@H]1[C@H](C)CC[C@]2(C(=O)O)CC[C@]3(C)C(=CC[C@@H]4[C@@]5(C)CC[C@H](O)C(C)(C)[C@@H]5CC[C@]43C)[C@H]12` [ursolic acid], in the data set with S. aureus and MRSA (MRSA strain), the minimum inhibitory concentration (MIC) was 64 µg/mL (≈ 140 µM).
Regarding Colistin sulfate, the “MIC, K. pneumoniae” value in data set [5] worked out at 0.15 µM. Moreover, the “MIC, A. baumannii” value in data set [6] is 0.15 µM.
